# How the values were obtained:
# [1] = test system: anterior and posterior HOXA genes; assay: HOXA gene expression in hPSCs with EC23 and/or SB CHIR (FIG. 29); type: cell-based, human; conditions: d2-4
# Procedure: hPSCs were differentiated in medium supplemented with CHIR99021, BMP4, VEGF, SCF, ACTIVIN A and FGF2 (denoted CH BVSAF in FIG. 29) from d0-4, or with an additional pulse of SB431542 and CHIR99021 (denoted SB CHIR in FIG. 29) from d2-4. Cultures also were treated with the retinoic acid analogue EC23 at 0, 10^−5 M or 10^−7 M concentrations from d2-4 (denoted 0, 10-5 and 10-7, respectively in FIG. 29). […] Gene expression was normalized to GAPDH and is shown in arbitrary units in FIG. 29.
# [2] = test system: HOXA and CDX genes; assay: RT-PCR of HOXA and CDX genes in differentiating hESC cultures supplemented with SB, CHIR or SB/CHIR; type: cell-based, human; conditions: added from differentiation days 2 to 4; RT-PCR at d4 and d7
# Procedure: Total RNA was prepared from ES cells and dissociated EBs using the Qiagen RNeasy kit or the Bioline Isolate II RNA Mini Kit according to the manufacturers' instructions. cDNA was reverse transcribed using random hexamer priming and Superscript III (Invitrogen) or Tetro (Bioline) cDNA synthesis kits as specified by the manufacturer. Human RUNX1 isoform specific primers (Table 1) were based on those designed for mouse Runx1 previously. For other genes, TaqMan gene expression probes and reagents (Applied Biosystems) were used for quantitative real-time PCR analysis and GAPDH was used as the reference gene to normalize data.
# The HES3 and H9 human embryonic stem cell lines used in these studies were obtained from ES Cell International (now owned by Biotime Inc) and WiCell. The human ESC work was approved by the Monash Medical Centre and Royal Children's Hospital Human Research Ethics Committees. Culture and enzymatic passaging of hESC lines was performed as reported in Ng et al. Nature Protocols 3, 768-776 (2008). […] Brightfield and fluorescence images comparing RUNX1C^GFP/w with RUNX1C^GFP/GFP cell cultures shown in FIG. 1b were representative of 3 independent experiments. […]
SMILES,effectiveness on HOXA gene induction ([1]; 10^−5 M),effectiveness on HOXA gene induction ([1]; 10^−7 M),HOXA gene expression compared with control cultures [2]
CC1(C)CCC(C)(C)c2cc(C#Cc3ccc(C(=O)O)cc3)ccc21 [EC23],effective,effective,
"NC(=O)c1ccc(-c2nc(-c3ccc4c(c3)OCO4)c(-c3ccccn3)[nH]2)cc1 [SB, SB431542]",,,"increased HOXA3, HOXA7 and HOXA9 expression"
"Cc1c[nH]c(-c2cnc(NCCNc3ccc(C#N)cn3)nc2-c2ccc(Cl)cc2Cl)n1 [CHIR, CHIR99021]",,,increased HOXA9 and HOXA10 expression
